In patent US11191735B2, “Arginine silicate for periodontal disease” (NUTRITION 21, LLC, priority 2015, dated 2021):
Where two headings read alike, the source gives them in different places. Marks after values point to notes of the source that are not given here.

Experiments:
[1] = system: experimental periodontal disease (ligature model); conditions: for ICI Dense, animals / ICI Little visible, animals / ICI Slightly visible, animals: n=13
Experimental: (§1) All animals and surgical procedures were handled in accordance with guidelines of the Chancellor's Animal Research Committee of the Office for Protection of Research Subjects at the University of Inonu, Malatya, Turkey (2013/A-12). Fifty-two (2-month-old) female Sprague-Dawley rats weighing […] (Experimental Research Center of Inonu University) were kept in temperature-controlled cages (approximately 25° C.), exposed to a 24-hr light-dark cycle of equal time, and had free access to water and food ad libitum.
(§2) The fifty-two rats were randomly divided into four groups: the non-ligated treatment (Control) group (n=13), the ligature-only (L) group (n=13), the ligature plus ASI (“arginine-silicate-inositol;” Nutrition 21, NY, USA, see, e.g. U.S. Pat. Nos. 5,707,970 and 7,576,132) with dose of 1.81 mg/kg of diet group (designated “ASI I”), (n=13), the ligature plus ASI with dose of 3.62 mg/kg of diet group (designated “ASI II”) (n=13).
(§3) For all the studies described herein, the well-characterized ligature model of placing a sterile wire ligature around the crown of the right first maxillary molar was utilized. Rats were anesthetized with Rompun®, 10 mg/kg ve Xylazine®, 40 mg/kg ketamin, and a sterile 28-gauge wire ligature was placed around the cervical portion of the right first molar. Animals continued to receive basal diet or basal diet supplemented with 1.81 or 3.62 […] (Proctor et al., 2005) for 8 weeks before ligature placement.
A histologic evaluation was performed by a single examiner (I.O.) who was masked to the identity of the samples. The specimens were fixed in a 10% neutral-buffered formalin solution and demineralized in an aqueous 10% formic acid solution. The specimens were then dehydrated, embedded in paraffin, and sectioned along the molars in a mesiodistal plane for hematoxylin and eosin staining, as described by Toker et al. Light microscopy (Nikon, Tokyo, Japan), and assessment was performed on the two sections with a thickness of about […], corresponding to the buccal and lingual areas between the first and second molars where ligatures had been placed.
The areas of alveolar bone and interdental septum were analyzed under light microscopy, considering parameters including inflammatory cell infiltration (“ICI”) of the periodontal tissues, existing resorption lacunae (osteoclast surfaces), osteoblastic activity (forming surfaces) and the number of osteoclasts. […] Osteoclasts were counted based on their morphology.

[2] = system: early to mild periodontitis
Source text: The study group comprises ten systemically healthy subjects with early to mild periodontitis. […] Prior to any treatment procedure, oral hygiene instructions (OHI) are given. Each quadrant of the subjects is randomly assigned to one of the following groups: (A) scaling and root planning combined with daily administration of arginine silicate post-treatment, (B) scaling and root planning alone, (C) daily administration of arginine silicate alone, and (D) OHI alone.
Subjects are re-examined at one week, four weeks, eight weeks, and 12 weeks.

[3] = system: experimental periodontal disease (ligature model)
Experimental: as §1, §2, §3
Bones were imaged by micro-computed tomographic (μCT) scanning (SkyScan1172 Compact MKT (Kontich, Belgium)) at 16-μm resolution, and volumetric data were converted to DICOM format and imported in the Recon 1.6.9.4 SkyScan (Contich, Belgium) to generate 3D and multiplanar reconstructed images. An oral and maxillofacial radiologist (ST), blinded to the specific animal treatment, evaluated the μCT images of all animals to identify and score bony changes and performed all linear measurements using Recon software tools.
To quantify the amount of bone loss induced by experimental periodontal disease (PD), the imaged volume was oriented with the nasal cavity floor parallel to the horizontal plane and the midpalatal suture parallel to the midsagittal plane. Then the volume was angled such that the long axis of the distal root of the first molar (D1) and the mesial root of the second molar (M2) were vertical to the horizontal plane. Then the distance between the cementoenamel junction (CEJ) and the alveolar bone crest (ABC) was measured at the center of D1 and M2. To quantitatively assess changes in the width of the buccal alveolar outline on axial slices, the imaged volume was oriented such that the floor of the nasal cavity was parallel to the horizontal plane and the midpalatal suture was parallel to the midsagittal plane. Then the shortest distance from the buccal surface of the root to the buccal outline of the alveolar ridge was measured for the mesial and distal roots of the first and second molars at the level of the hard palate.

[4] = system: experimental periodontal disease (ligature model); conditions: for ALP (serum) / CRP (serum) / Ca (serum) / P (serum): rats
Experimental: as §1, §2, §3
(§4) Animals were monitored weekly to ensure presence of the ligature, and the ligature was adjusted if necessary. At the end of the experiment, animals were euthanized, blood was collected via cardiac puncture, and serum biomarkers including Ca, Mg, phosphorus, alkaline phosphatase, and CRP (C-reactive protein) were measured. Whole maxillas were removed, placed in 10% formalin for 48 hours, and stored in 70% ethanol.

[5] = system: IL-1β, MMP-8, RANK, RANKL, OPG, MPO expression levels from periodontal tissue; conditions: for IL-1β protein level / MMP-8 protein level / MPO protein level / OPG protein level / RANK protein level / RANKL protein level: control = 100
Source text: FIG. 1B depicts western blot strips Il-1B, MMP-8, RANK, RANK-L, OPG and MPO expression levels from periodontal tissue.
as §1, §2, §3, §4

[6] = system: gingivitis; experiment: Study in patients with gingivitis (Example 4); format: in vivo, human
Experimental: 20 patients with gingivitis (having at least three of the following symptoms: swollen gums, bright red or purple gum tissue, gum tissue that is sensitive to touch, bleeding gums, bad breath) are studied. Five patients are administered once-daily arginine silicate (I); five patients are topically administered once-daily arginine silicate to the oral cavity (II); five patients are administered chlorhexidine mouthwash for twice-daily use (III); and five patients are administered standard over-the-counter mouthwash for twice daily use (IV).
Patients are evaluated at four weeks, eight weeks, and twelve weeks. […] The trial is ceased at twelve weeks to avoid side effects from the chlorhexidine treatment.

[7] = L + ASI I: ligature plus ASI, 1.81 mg/kg of diet
[8] = L + ASI II: ligature plus ASI, 3.62 mg/kg of diet

arginine silicate inositol [ASI]
ICI (inflammatory cell infiltration) ([1]; ASI treatment (both doses)): significantly reduced | ICI Dense, animals ([1]; L + ASI I: 1.81 mg/kg of diet): 4 (%30.8) n (%) | ICI Little visible, animals ([1]; L + ASI I: 1.81 mg/kg of diet): 0 (%0) n (%) | ICI Slightly visible, animals ([1]; L + ASI I: 1.81 mg/kg of diet): 9 (%69.2) n (%) | ICI Dense, animals ([1]; L + ASI II: 3.62 mg/kg of diet): 2 (%15.4) n (%) | ICI Little visible, animals ([1]; L + ASI II: 3.62 mg/kg of diet): 0 (%0)^ n (%) | ICI Slightly visible, animals ([1]; L + ASI II: 3.62 mg/kg of diet): 11 (%84.6) n (%) | improvement in periodontal symptoms ([2]; group (A): scaling and root planning combined with daily arginine silicate, eight and twelve weeks): significant improvement | improvement in periodontal symptoms ([2]; group (A): scaling and root planning combined with daily arginine silicate, four weeks): significant improvement | improvement in periodontal symptoms ([2]; group (C): daily arginine silicate alone, eight and twelve weeks): significant improvement | improvement in periodontal symptoms ([2]; group (C): daily arginine silicate alone, four weeks): minimal improvement | bone mineral density with respect to the controls and the ASI I group ([3]; ASI II (3.62 mg/kg of diet)): significantly increased | BMD (bone mineral density) ([3]; L + ASI I: 1.81 mg/kg of diet): 0.78 ± 0.07 g/cm^2 | DCEJ-DCB/DCEJ-DRAP, rate of bone loss ([3]; L + ASI I: 1.81 mg/kg of diet): 0.41 ± 0.12 ^ | MCEJ-MCB/MCEJ-MRAP, rate of bone loss ([3]; L + ASI I: 1.81 mg/kg of diet): 0.49 ± 0.10 ^a,b | RF-RFCB/RF-RFAP, rate of bone loss ([3]; L + ASI I: 1.81 mg/kg of diet): 0.21 ± 0.04 ^a,b | BMD (bone mineral density) ([3]; L + ASI II: 3.62 mg/kg of diet): 0.85 ± 0.06 ^b g/cm^2 | DCEJ-DCB/DCEJ-DRAP, rate of bone loss ([3]; L + ASI II: 3.62 mg/kg of diet): 0.42 ± 0.08 ^ | MCEJ-MCB/MCEJ-MRAP, rate of bone loss ([3]; L + ASI II: 3.62 mg/kg of diet): 0.50 ± 0.10 ^a,b | RF-RFCB/RF-RFAP, rate of bone loss ([3]; L + ASI II: 3.62 mg/kg of diet): 0.22 ± 0.05 ^a,b | serum calcium levels ([4]; ASI II group (3.62 mg/kg of diet)): significantly reduced | serum CRP levels in comparison to the induced periodontitis group ([4]; ASI treatment groups (both doses)): significantly lower | ALP (serum) [4, 7]: 440.31 ± 69.93 U/L | CRP (serum) [4, 7]: 0.16 ± 0.07^b mg/dl | Ca (serum) [4, 7]: 10.37 ± 0.32 mg/dL | P (serum) [4, 7]: 8.35 ± 1.82 mg/dL | ALP (serum) [4, 8]: 380.54 ± 85.36 U/L | CRP (serum) [4, 8]: 0.18 ± 0.06^b mg/dl | Ca (serum) [4, 8]: 9.78 ± 0.66^c mg/dl | P (serum) [4, 8]: 7.82 ± 1.61 mg/dL | levels for IL-1β and MPO in the ASI II group in comparison to the ASI I group ([5]; 3.62 vs 1.81 mg/kg of diet): significantly lower | levels for IL-1β, MMP-8, RANK, RANKL, OPG, MPO in comparison to the periodontitis group ([5]; ASI groups (both doses)): significantly lower | IL-1β protein level ([5]; L + ASI I: 1.81 mg/kg of diet): 142.5 ± 2.53^a,b | MMP-8 protein level ([5]; L + ASI I: 1.81 mg/kg of diet): 166.79 ± 7.86^a,b | MPO protein level ([5]; L + ASI I: 1.81 mg/kg of diet): 180 ± 2.97^a,b | OPG protein level ([5]; L + ASI I: 1.81 mg/kg of diet): 72.87 ± 4.67^a,b | RANK protein level ([5]; L + ASI I: 1.81 mg/kg of diet): 189.27 ± 5.3^a,b | RANKL protein level ([5]; L + ASI I: 1.81 mg/kg of diet): 150.11 ± 6.34^a,b | IL-1β protein level ([5]; L + ASI II: 3.62 mg/kg of diet): 111.24 ± 2.35^a,b,c | MMP-8 protein level ([5]; L + ASI II: 3.62 mg/kg of diet): 150.256 ± 11.6^a,b | MPO protein level ([5]; L + ASI II: 3.62 mg/kg of diet): 159.59 ± 13.09^a,b,c | OPG protein level ([5]; L + ASI II: 3.62 mg/kg of diet): 91.13 ± 3.04^a,b,c | RANK protein level ([5]; L + ASI II: 3.62 mg/kg of diet): 174.31 ± 9.82^a,b | RANKL protein level ([5]; L + ASI II: 3.62 mg/kg of diet): 138.35 ± 13.6^a,b | reduction in symptoms of gingivitis ([6]; group (I): administered once-daily, eight and twelve weeks): most significant reduction | reduction in symptoms of gingivitis ([6]; group (I): administered once-daily, four weeks): significant reduction | reduction in symptoms of gingivitis ([6]; group (II): topically administered once-daily to the oral cavity, eight and twelve weeks): most significant reduction | reduction in symptoms of gingivitis ([6]; group (II): topically administered once-daily to the oral cavity, four weeks): significant reduction
